Where two headings read alike, the source gives them in different places.
Legend:
[1] = tested on: Leishmania donovani intracellular amastigotes; test: Intracellular amastigote assay in infected RAW 264.7 cells; type: cell-based; conditions: for Selectivity Index (CC50/IC50), amastigotes: CC50 Raw 264.7 / IC50 intracellular amastigotes; for IC50: intracellular amastigotes in RAW 264.7 cells, 48 hours, read-out: Amastigotes IC50 (μM) ± SD
Description: (§1) Amastigote cultures were prepared as reported by Jain and colleagues. Briefly, Raw 264.7 cells (4 x 10^7 cells) were seeded in 4 chamber slides and 1 x 10^7 cells in 96 well plates and incubated for 24 hours at 37°C in 5% CO2. The RAW 264.7 cells were infected with metacyclic promastigotes (1 x 10^8 cells) at an infection ratio of 1:10 macrophage: parasites and incubated for 24 hours at 37°C in 5% CO2. The overlying medium was removed, and the monolayer intracellular amastigotes were carefully washed four times with serum free M199 to remove free parasites. Freshly prepared M199 containing 10% FBS and the test compounds at concentrations ranging from 0–50 μg/mL were added to the infected cells and incubated for 48 hours at 37°C in 5% CO2. Triplicate incubations were performed in all the experiments. The chamber slides were washed thrice after incubation with M199 without FBS. The slides were then fixed in absolute methanol for 30 sec, rehydrated in 1x PBS for 5 min and stained with DAPI for 15 min. The slides were viewed by fluorescence microscopy and the number of infected macrophages counted using ImageJ Software to determine the infectivity index and IC50 values for amastigotes.
The infected RAW 264.7 cells in the 96 wells microtiter plates were also incubated for 48 hours and washed thrice as above. Sodium dodecyl sulfate (SDS) of concentration 0.05% was added to the wells for 30 sec for controlled lysis with M199 and 10% FBS. After the 30 sec, M199 with 10% FBS was added and the plates incubated at 25°C for 72 hours for the differentiation of the rescued amastigotes to promastigotes. Following incubation, the amastigotes were subjected to MTT assay and the absorbance obtained were used to estimate IC50 values of the compounds against the amastigote forms.

[2] = tested on: Leishmania donovani promastigotes; test: Parasite growth analysis (trypan blue counting); type: cell-based; conditions: IC50 concentrations; for decrease in the number of promastigotes: at 48 hours
Description: The dose dependent inhibition of phenolic compounds on promastigotes was determined by culturing promastigotes (2 x 10^5 cells) in freshly prepared M199 medium in the presence and absence of varying concentration of the test compounds, apigenin (IC50, 2x IC50, 4x IC50), rosmarinic acid (IC50, 2x IC50, 4x IC50), amphotericin B (1/2 IC50, IC50) and deferoxamine (IC50, 2x IC50, 4x IC50), for 120 hours. The number of parasites was determined by staining with trypan blue every 24 hours. Quantification of the viable parasites was determined by counting the parasites with the clear cytoplasm (non-stained) using a Neubauer hemocytometer with a cover slip. Three independent experiments were performed, and data expressed as mean ± standard deviation.

[3] = tested on: L. donovani promastigotes; test: Cell cycle analysis by flow cytometry; type: cell-based, Leishmania donovani; conditions: 24 hours; for decrease in the number of parasites at the M phase / increase in G0/G1 cells: 2x IC50 (amphotericin B 1/2 IC50); for increase in G0/G1 cells: versus untreated 34.6%
Description: Cell cycle analysis of treated and untreated L. donovani promastigotes was performed using flow cytometry. […] The fixed cells were harvested, resuspended in 1x PBS for 1 min and washed twice in 1x PBS. Staining solution (Guava cell cycle reagent) was added and incubated at room temperature for 30 min. The percentage cell count in G0, G1, S, G2 and M phases of the cell cycle were determined with BD LSR Fortessa™^. X-20 analyzer (BD Biosciences) and data was analyzed with FlowJo software.

[4] = tested on: iron superoxide dismutase A (FeSOD); test: RT-qPCR mRNA expression of FeSOD; type: cell-based, Leishmania donovani; conditions: promastigotes, 24 hours; for FeSOD Relative quantity: Fig 7B
Description: Promastigotes (1 x 10^7 cells) were separately treated with rosmarinic acid, apigenin, amphotericin B and deferoxamine, harvested after 24 hours incubation at 25°C. The parasites were then pelleted by centrifugation at 239 × g for 10 min and the pellet was re-suspended in 1 mL TRIzol. Samples were incubated overnight at -80°C and total RNA was extracted as described by the manufacturer’s protocol using Quick-RNA MiniPrep Plus (Zymo Research, USA). Purity of total RNA was determined to be approximately 2.0 using a Nanodrop. The oligonucleotide primers for the amplification of the iron dependent enzymes—ribonucleotide reductase (RNR) (3’[…] and 5’CAACAACTTCTGCGCATCG), iron superoxide dismutase A (FeSOD) (3’[…] and 5’[…]) and Leishmania iron transporter 1 (LIT1) (3’[…] and 5’ […]) were designed using sequences of Leishmania reference genome from tritrypdb.org (http://tritrypdb.org/tritrypdb/) and Primer 3 software. The oligonucleotide primers used in amplifying the housekeeping gene Histone 2A were (3’ […] and 5’[…]). The RT-qPCR reaction was conducted as described by manufacturer’s protocol with final concentrations of oligonucleotide primers as 0.4 μM, 1x Luna Universal One-Step Reaction mix, 1x Luna WarmStart RT Enzyme Mix and template RNA ≤ 1 μg. All the RT-PCR products were standardized with respect to the endogenous control, Histone 2A. The levels of the mRNA transcripts were obtained using the QuantStudio 5 Real-Time PCR System (Applied Biosystems). The data represent three independent experiments done in triplicate and a fold change in gene expression of >2 was considered significant.

[5] = tested on: Leishmania donovani intracellular amastigotes; test: Infectivity index of infected macrophages (DAPI, fluorescence microscopy); type: cell-based; conditions: 48 hours; for infectivity values (infectivity index): concentration not given
Description: as §1

SMILES | Selectivity Index (CC50/IC50), amastigotes [1] | IC50 ([1]; Leishmania donovani, RAW264.7) [µM] | decrease in the number of promastigotes [2] [%] | decrease in the number of parasites at the M phase ([3]; versus untreated) [%] | increase in G0/G1 cells [3] [%] | FeSOD mRNA expression versus untreated [4] | FeSOD Relative quantity [4] | infectivity values (infectivity index) [5] | IC50 ([1]; Leishmania donovani, RAW264.7, 48 h) [µM] | IC50 [1] [µM] | reduction in the number of parasites ([2]; at 24 hours) [%] | change in the number of parasites at the S phase ([3]; versus untreated) | infectivity index ([5]; 3.12 μg/mL)
O=c1cc(-c2ccc(O)cc2)oc2cc(O)cc(O)c12 [Apigenin, apigenin] | 5.21 | 45.66 ± 0.01 | 50 | 6.8 | 8 | did not significantly change | 0.7 | 152.2 |  |  |  |  | 
C[C@@H]1[C@H](O)[C@@H](C)/C=C/C=C/C=C/C=C/C=C/C=C/C=C/[C@H](O[C@@H]2O[C@H](C)[C@@H](O)[C@H](N)[C@@H]2O)C[C@@H]2O[C@](O)(C[C@@H](O)C[C@@H](O)[C@H](O)CC[C@@H](O)C[C@@H](O)CC(=O)O[C@H]1C)C[C@H](O)[C@H]2C(=O)O [Amphotericin B, reference compound] | 2.40 |  |  |  | 13.1 | did not significantly change | 0.7 |  | 6.491 ± 0.03 | 6.49 ± 0.03 | 90 | significant increase | 56
O=C(/C=C/c1ccc(O)c(O)c1)O[C@H](Cc1ccc(O)c(O)c1)C(=O)O [Rosmarinic acid, rosmarinic acid] | 12.70 | 19.21 ± 0.01 | 50 | 8.0 | 7.1 | did not significantly change | 1.3 | 140 |  |  |  |  | 
CC(=O)N(O)CCCCCNC(=O)CCC(=O)N(O)CCCCCNC(=O)CCC(=O)N(O)CCCCCN [Deferoxamine, deferoxamine, reference compound] | 0.73 | 36.74 ± 0.01 | 50 | 7.7 | 7 | 5 fold | 5.0 | 177 |  |  |  |  | 

From article PMC6405172, “In vitro activity and mode of action of phenolic compounds on Leishmania donovani” (PLoS Neglected Tropical Diseases, 2019)
